Source: patent US20200190081A1, “META SUBSTITUTED PHENYLPYRAZOLO- AND PHENYLPYRROLO- PYRIDAZINE DERIVATIVES HAVING MULTIMODAL ACTIVITY AGAINST PAIN” (ESTEVE PHARMACEUTICALS, S.A., priority 2016, published 2020)

Assays:
[1] = target: Human norepinephrine transporter (NET) (Homo sapiens, UniProt P23975); assay: Binding assay to human norepinephrine transporter (NET), [3H]-Nisoxetin; conditions: human NET enriched membranes, 5 nM [3H]-Nisoxetin
Method: Binding Assay to Human Norepinephrine Transporter (NET).
Human norepinephrine transporter (NET) enriched membranes (5 μg) were incubated with 5 nM of radiolabeled [3H]-Nisoxetin in assay buffer containing 50 mM Tris-HCl, 120 mM NaCl, 5 mM KCl, pH 7.4. NSB (non specific binding) was measured by adding 10 μM of desipramine. The binding of the test compound was measured at five different concentrations. After 60 min incubation at 4° C., binding reaction was terminated by filtering through Multiscreen GF/C (Millipore) presoaked in 0.5% polyethyleneimine in Vacuum Manifold Station, followed by 3 washes with ice-cold filtration buffer containing 50 mM Tris-HCl, 0.9% NaCl, pH 7.4. Filter plates were dried at 60° C. for 1 hour and 30 μl of scintillation cocktail were added to each well before radioactivity reading. Readings were performed in a Trilux 1450 Microbeta radioactive counter (Perkin Elmer).

[2] = target: Human α2δ-1 Subunit of Cav2.2 Calcium Channel (Homo sapiens, UniProt P54289); assay: Human α2δ-1 subunit of Cav2.2 calcium channel assay, [3H]-Gabapentin binding; conditions: human α2δ-1 enriched membranes, 15 nM [3H]-Gabapentin
Chain of Human α2δ-1 Subunit of Cav2.2 Calcium Channel (P54289 25-1103): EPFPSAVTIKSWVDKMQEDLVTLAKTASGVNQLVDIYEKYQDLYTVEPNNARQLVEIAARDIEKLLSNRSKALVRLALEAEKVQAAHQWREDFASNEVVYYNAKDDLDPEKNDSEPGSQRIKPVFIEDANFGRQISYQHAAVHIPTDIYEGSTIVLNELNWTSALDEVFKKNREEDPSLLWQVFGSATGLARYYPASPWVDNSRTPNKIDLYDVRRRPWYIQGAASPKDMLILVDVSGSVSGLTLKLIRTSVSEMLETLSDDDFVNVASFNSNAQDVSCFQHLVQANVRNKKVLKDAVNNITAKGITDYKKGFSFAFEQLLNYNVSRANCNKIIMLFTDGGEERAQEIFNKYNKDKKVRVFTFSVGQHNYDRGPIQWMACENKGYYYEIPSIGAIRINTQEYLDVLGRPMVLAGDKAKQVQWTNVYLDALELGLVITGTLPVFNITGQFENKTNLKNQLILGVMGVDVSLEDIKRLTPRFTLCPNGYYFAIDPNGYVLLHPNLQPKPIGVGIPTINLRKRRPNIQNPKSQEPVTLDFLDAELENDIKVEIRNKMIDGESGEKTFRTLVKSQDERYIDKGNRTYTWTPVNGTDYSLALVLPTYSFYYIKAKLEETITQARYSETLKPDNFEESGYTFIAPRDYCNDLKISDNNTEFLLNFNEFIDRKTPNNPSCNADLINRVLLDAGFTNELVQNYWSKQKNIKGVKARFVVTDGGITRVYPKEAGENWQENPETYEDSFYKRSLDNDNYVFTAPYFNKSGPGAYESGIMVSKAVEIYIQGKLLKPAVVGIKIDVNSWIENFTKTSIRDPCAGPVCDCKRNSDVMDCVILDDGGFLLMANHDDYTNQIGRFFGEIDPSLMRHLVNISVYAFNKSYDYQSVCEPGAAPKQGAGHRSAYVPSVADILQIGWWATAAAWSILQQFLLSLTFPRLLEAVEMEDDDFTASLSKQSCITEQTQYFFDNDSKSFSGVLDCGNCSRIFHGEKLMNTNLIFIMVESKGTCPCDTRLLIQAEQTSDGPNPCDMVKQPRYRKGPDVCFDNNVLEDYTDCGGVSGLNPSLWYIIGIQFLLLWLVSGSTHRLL
Method: Human α2δ-1 Subunit of Cav2.2 Calcium Channel Assay
Human α2δ-1 enriched membranes (2.5 μg) were incubated with 15 nM of radiolabeled [3H]-Gabapentin in assay buffer containing Hepes-KOH 10 mM, pH 7.4. NSB (non specific binding) was measured by adding 10 μM pregabalin. The binding of the test compound was measured at five different concentrations. After 60 min incubation at 27° C., binding reaction was terminated by filtering through Multiscreen GF/C (Millipore) presoaked in 0.5% polyethyleneimine in Vacuum Manifold Station, followed by 3 washes with ice-cold filtration buffer containing 50 mM Tris-HCl, pH 7.4. Filter plates were dried at 60° C. for 1 hour and 30 μl of scintillation cocktail were added to each well before radioactivity reading. Readings were performed in a Trilux 1450 Microbeta radioactive counter (Perkin Elmer).

Chain of Human norepinephrine transporter (NET) (P23975 whole entry): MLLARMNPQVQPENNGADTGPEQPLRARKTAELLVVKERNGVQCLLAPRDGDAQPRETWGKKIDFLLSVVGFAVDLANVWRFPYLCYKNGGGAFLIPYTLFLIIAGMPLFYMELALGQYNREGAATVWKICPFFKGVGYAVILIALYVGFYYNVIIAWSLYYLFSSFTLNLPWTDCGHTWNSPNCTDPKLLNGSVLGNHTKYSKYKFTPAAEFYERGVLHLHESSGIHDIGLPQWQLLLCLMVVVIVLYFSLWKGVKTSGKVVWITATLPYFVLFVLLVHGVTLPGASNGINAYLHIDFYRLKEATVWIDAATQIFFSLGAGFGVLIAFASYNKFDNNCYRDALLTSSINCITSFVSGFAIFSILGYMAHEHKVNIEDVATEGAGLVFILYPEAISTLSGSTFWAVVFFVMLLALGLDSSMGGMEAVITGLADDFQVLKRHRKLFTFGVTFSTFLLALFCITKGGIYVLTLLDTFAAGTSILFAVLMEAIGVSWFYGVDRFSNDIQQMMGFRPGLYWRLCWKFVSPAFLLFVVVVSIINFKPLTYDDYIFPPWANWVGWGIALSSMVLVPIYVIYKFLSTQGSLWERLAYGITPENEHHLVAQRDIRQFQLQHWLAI

| Compound | Ki [1] | Ki [2] |
| --- | --- | --- |
| CNCCC(Oc1cccc(-n2nc3c(N(C)C)nnc(C)c3c2C)c1)c1ccccc1F (stereo not shown) [Example 30, 2-(3-(1-(2-Fluorophenyl)-3-(methylamino)propoxy)phenyl)-N,N,3,4-tetramethyl-2H-pyrazolo[3,4-d]pyridazin-7-amine] | < 100 nM | 500 to 5000 nM |
| CNCCC(Oc1cccc(-n2nc3c(N(C)CCO)nnc(C)c3c2C)c1)c1ccccc1F (stereo not shown) [Example 31, 2-((2-(3-(1-(2-fluorophenyl)-3-(methylamino)propoxy)phenyl)-3,4-dimethyl-2H-pyrazolo[3,4-d]pyridazin-7-yl)(methyl)amino)ethanol] | < 100 nM | 500 to 5000 nM |
| CNCCC(Oc1cccc(-n2nc3c(N(C)CCCO)nnc(C)c3c2C)c1)c1ccccc1F (stereo not shown) [Example 32, 3-((2-(3-(1-(2-fluorophenyl)-3-(methylamino)propoxy)phenyl)-3,4-dimethyl-2H-pyrazolo[3,4-d]pyridazin-7-yl)(methyl)amino)propan-1-ol] | < 100 nM | 500 to 5000 nM |
| CNCCC(Oc1cccc(-n2nc3c(N4CC(OC)C4)nnc(C)c3c2C)c1)c1ccccc1F (stereo not shown) [Example 33, 3-(2-fluorophenyl)-3-(3-(7-(3-methoxyazetidin-1-yl)-3,4-dimethyl-2H-pyrazolo[3,4-d]pyridazin-2-yl)phenoxy)-N-methylpropan-1-amine] | 500 to 1000 nM | 500 to 5000 nM |
| CNCCC(Oc1cccc(-n2nc3c(N(C)C)nnc(C)c3c2C)c1)c1nccs1 (stereo not shown) [Example 34, N,N,3,4-Tetramethyl-2-(3-(3-(methylamino)-1-(thiazol-2-yl)propoxy)phenyl)-2H-pyrazolo[3,4-d]pyridazin-7-amine] | ≥ 1000 nM | < 500 nM |
| CNCC(Oc1cccc(-n2nc3c(N(C)C)nnc(C)c3c2C)c1)c1ccccc1 (stereo not shown) [Example 35, N,N,3,4-tetramethyl-2-(3-(2-(methylamino)-1-phenylethoxy)phenyl)-2H-pyrazolo[3,4-d]pyridazin-7-amine] | < 100 nM | 500 to 5000 nM |
| CNCCC(Oc1cccc(-n2nc3c(N(C)C)nnc(C)c3c2C)c1)c1ccccc1OC (stereo not shown) [Example 36, 2-(3-(1-(2-methoxyphenyl)-3-(methylamino)propoxy)phenyl)-N,N,3,4-tetramethyl-2H-pyrazolo[3,4-d]pyridazin-7-amine] | 100 to 500 nM | 500 to 5000 nM |
| Cc1nnc(N(C)C)c2nn(-c3cccc(OC(CN(C)C)c4ccccc4)c3)c(C)c12 (stereo not shown) [Example 37, 2-(3-(2-(dimethylamino)-1-phenylethoxy)phenyl)-N,N,3,4-tetramethyl-2H-pyrazolo[3,4-d]pyridazin-7-amine] | 100 to 500 nM | 500 to 5000 nM |
| CNCCC(Cc1ccccc1)Oc1cccc(-n2nc3c(N(C)C)nnc(C)c3c2C)c1 (stereo not shown) [Example 38, N,N,3,4-tetramethyl-2-(3-((4-(methylamino)-1-phenylbutan-2-yl)oxy)phenyl)-2H-pyrazolo[3,4-d]pyridazin-7-amine] | 100 to 500 nM | 500 to 5000 nM |
| CNCCC(Oc1cccc(-n2nc3c(N(C)C)nnc(C)c3c2C)c1)c1cccc(OC)c1 (stereo not shown) [Example 39, 2-(3-(1-(3-methoxyphenyl)-3-(methylamino)propoxy)phenyl)-N,N,3,4-tetramethyl-2H-pyrazolo[3,4-d]pyridazin-7-amine] | < 100 nM | 500 to 5000 nM |
| CNCC(Oc1cccc(-n2nc3c(N(C)C)nnc(C)c3c2C)c1)c1cccs1 (stereo not shown) [Example 40, N,N,3,4-tetramethyl-2-(3-(2-(methylamino)-1-(thiophen-2-yl)ethoxy)phenyl)-2H-pyrazolo[3,4-d]pyridazin-7-amine] | 500 to 1000 nM | 500 to 5000 nM |
| CNCC(Oc1cccc(-n2nc3c(N(C)C)nnc(C)c3c2C)c1)c1ccccc1F (stereo not shown) [Example 41, 2-(3-(1-(2-fluorophenyl)-2-(methylamino)ethoxy)phenyl)-N,N,3,4-tetramethyl-2H-pyrazolo[3,4-d]pyridazin-7-amine] | 100 to 500 nM | 500 to 5000 nM |
| CNCCC(Oc1cccc(-n2nc3c(N(C)C)nnc(C)c3c2C)c1)c1cccnc1 (stereo not shown) [Example 42, N,N,3,4-tetramethyl-2-(3-(3-(methylamino)-1-(pyridin-3-yl)propoxy)phenyl)-2H-pyrazolo[3,4-d]pyridazin-7-amine] | 100 to 500 nM | < 500 nM |
| CNCC(Oc1cccc(-n2nc3c(N(C)C)nnc(C)c3c2C)c1)c1cccc(F)c1 (stereo not shown) [Example 43, 2-(3-(1-(3-fluorophenyl)-2-(methylamino)ethoxy)phenyl)-N,N,3,4-tetramethyl-2H-pyrazolo[3,4-d]pyridazin-7-amine] | < 100 nM | 500 to 5000 nM |
| Cc1nnc(N(C)C)c2nn(-c3cccc(OC(Cc4ccccc4)CN(C)Cc4ccccc4)c3)c(C)c12 (stereo not shown) [Example 44, 2-(3-((1-(benzyl(methyl)amino)-3-phenylpropan-2-yl)oxy)phenyl)-N,N,3,4-tetramethyl-2H-pyrazolo[3,4-d]pyridazin-7-amine] | ≥ 1000 nM | ≥ 5000 nM |
| CNCC(Oc1cccc(-n2nc3c(N(C)C)nnc(C)c3c2C)c1)c1cccnc1 (stereo not shown) [Example 45, N,N,3,4-tetramethyl-2-(3-(2-(methylamino)-1-(pyridin-3-yl)ethoxy)phenyl)-2H-pyrazolo[3,4-d]pyridazin-7-amine] | ≥ 1000 nM | 500 to 5000 nM |
| CNCCC(Oc1cccc(-n2nc3c(N(C)C)nnc(C)c3c2C)c1)c1ccc(OC(F)(F)F)cc1 (stereo not shown) [Example 46, N,N,3,4-tetramethyl-2-(3-(3-(methylamino)-1-(4-(trifluoromethoxy)phenyl)propoxy)phenyl)-2H-pyrazolo[3,4-d]pyridazin-7-amine] | 100 to 500 nM | 500 to 5000 nM |
| CNC(COc1cccc(-n2nc3c(N(C)C)nnc(C)c3c2C)c1)Cc1ccccc1 (stereo not shown) [Example 47, N,N,3,4-tetramethyl-2-(3-(2-(methylamino)-3-phenylpropoxy)phenyl)-2H-pyrazolo[3,4-d]pyridazin-7-amine] | < 100 nM | < 500 nM |
| CNCCC(Oc1cccc(-n2nc3c(N(C)C)nnc(C)c3c2C)c1)c1cncs1 (stereo not shown) [Example 48, N,N,3,4-tetramethyl-2-(3-(3-(methylamino)-1-(thiazol-5-yl)propoxy)phenyl)-2H-pyrazolo[3,4-d]pyridazin-7-amine] | 500 to 1000 nM | < 500 nM |
| CNC1(CC(Oc2cccc(-n3nc4c(N(C)C)nnc(C)c4c3C)c2)c2ccccc2)CC1 (stereo not shown) [Example 49, N,N,3,4-tetramethyl-2-(3-(2-(1-(methylamino)cyclopropyl)-1-phenylethoxy)phenyl)-2H-pyrazolo[3,4-d]pyridazin-7-amine] | < 100 nM | 500 to 5000 nM |
| Cc1nnc(N(C)C)c2nn(-c3cccc(OC(CCN)c4cccnc4)c3)c(C)c12 (stereo not shown) [Example 50, 2-(3-(3-amino-1-(pyridin-3-yl)propoxy)phenyl)-N,N,3,4-tetramethyl-2H-pyrazolo[3,4-d]pyridazin-7-amine] | ≥ 1000 nM | 500 to 5000 nM |
| CNCCC(Oc1cccc(-n2nc3c(N(C)C)nnc(C)c3c2C)c1)c1cccs1 (stereo not shown) [Example 51, N,N,3,4-Tetramethyl-2-(3-(3-(methylamino)-1-(thiophen-2-yl)propoxy)phenyl)-2H-pyrazolo[3,4-d]pyridazin-7-amine] | < 100 nM | 500 to 5000 nM |
| Cc1nnc(N(C)C)c2nn(-c3cccc(OC(CN(C)C)c4cccnc4)c3)c(C)c12 (stereo not shown) [Example 52, 2-(3-(2-(Dimethylamino)-1-(pyridin-3-yl)ethoxy)phenyl)-N,N,3,4-tetramethyl-2H-pyrazolo[3,4-d]pyridazin-7-amine] | ≥ 1000 nM | 500 to 5000 nM |
